From patent US10287288B2, “Factor XIa macrocyclic inhibitors bearing alkyl or cycloalkyl P2' moieties” (BRISTOL-MYERS SQUIBB COMPANY, priority 2015, dated 2019)
pKi: −log10 of the molar value. Where two headings read alike, the source gives them in different places.

Assays:
[1] = rcm bond
[2] = molecular target: T1, purified human Factor XIa (Homo sapiens, UniProt P03951); assay: Factor XIa inhibition assay (chromogenic substrate hydrolysis, Ki); format: biochemical; conditions: substrate S-2366, pH 7.4
T1 construct: purchased Haematologic Technologies

[3] = molecular target: T2, purified human plasma kallikrein (Homo sapiens, UniProt P03952); assay: Plasma kallikrein inhibition assay (chromogenic substrate hydrolysis, Ki); format: biochemical; conditions: substrate S-2302, pH 7.5
T2 construct: Plasma prekallikrein is a zymogen of a trypsin-like serine protease; purchased Enzyme Research Laboratories
T2 sequence (P03952 391-638 limits assumed): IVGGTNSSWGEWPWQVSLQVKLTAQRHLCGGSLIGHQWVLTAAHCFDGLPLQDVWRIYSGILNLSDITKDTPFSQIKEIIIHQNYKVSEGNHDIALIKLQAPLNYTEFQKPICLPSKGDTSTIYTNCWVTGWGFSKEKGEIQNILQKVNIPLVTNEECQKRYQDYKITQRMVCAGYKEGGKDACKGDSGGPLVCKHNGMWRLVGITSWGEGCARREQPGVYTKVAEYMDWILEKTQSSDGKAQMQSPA
T2 sequence (P03952 20-390 partner limits assumed): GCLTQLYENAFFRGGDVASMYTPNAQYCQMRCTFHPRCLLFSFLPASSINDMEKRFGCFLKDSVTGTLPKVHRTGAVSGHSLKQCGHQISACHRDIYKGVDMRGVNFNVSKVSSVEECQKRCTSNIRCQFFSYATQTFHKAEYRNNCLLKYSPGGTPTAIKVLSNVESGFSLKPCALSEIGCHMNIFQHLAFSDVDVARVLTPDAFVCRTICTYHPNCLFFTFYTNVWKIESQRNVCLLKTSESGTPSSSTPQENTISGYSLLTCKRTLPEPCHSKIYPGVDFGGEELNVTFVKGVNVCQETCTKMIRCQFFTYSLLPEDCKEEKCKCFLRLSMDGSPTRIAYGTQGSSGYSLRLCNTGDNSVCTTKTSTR

T1 sequence (P03951 388-625 limits assumed): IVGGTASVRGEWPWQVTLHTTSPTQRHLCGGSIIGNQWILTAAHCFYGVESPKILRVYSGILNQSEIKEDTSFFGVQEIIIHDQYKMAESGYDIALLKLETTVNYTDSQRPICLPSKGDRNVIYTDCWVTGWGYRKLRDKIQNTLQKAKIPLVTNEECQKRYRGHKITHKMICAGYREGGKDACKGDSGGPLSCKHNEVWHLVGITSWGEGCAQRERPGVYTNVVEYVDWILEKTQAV
T1 sequence (P03951 19-387 partner limits assumed): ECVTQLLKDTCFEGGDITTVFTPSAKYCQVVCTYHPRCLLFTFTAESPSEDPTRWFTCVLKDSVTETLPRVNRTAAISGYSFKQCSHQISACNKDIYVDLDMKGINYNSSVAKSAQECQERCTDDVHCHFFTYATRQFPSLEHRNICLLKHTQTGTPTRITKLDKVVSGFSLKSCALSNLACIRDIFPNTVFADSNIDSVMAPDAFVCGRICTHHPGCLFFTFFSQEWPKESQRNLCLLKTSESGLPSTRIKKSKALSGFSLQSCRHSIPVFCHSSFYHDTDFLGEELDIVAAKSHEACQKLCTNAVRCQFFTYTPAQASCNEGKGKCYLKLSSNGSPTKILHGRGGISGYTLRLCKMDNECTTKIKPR

| pKi [2] | pKi [3] | Structure (SMILES) | also measured |
| --- | --- | --- | --- |
|  |  | CC(C)(C)OC(=O)N[C@H]1CC=CCCNC(=O)[C@@H]2C[C@@H]2c2ccnc1c2 | ring closure, isolated yield ([1]; from C=CCCNC(=O)[C@@H]1C[C@@H]1c1ccnc([C@H](CC=C)NC(=O)OC(C)(C)C)c1, 13-membered ring, Grubbs II (0.2 eq)/pTsOH, DCM, 4.7 mM, 40.0 °C, 2.0 h): 65% |
|  |  | COC(=O)[C@H]1Cc2cccc(c2)[C@@H](NC(=O)OCc2ccccc2)C/C=C/[C@@H](C)C(=O)N1 | ring closure, isolated yield ([1]; from C=CC[C@H](NC(=O)OCc1ccccc1)c1cccc(C[C@@H](NC(=O)[C@H](C)C=C)C(=O)OC)c1, 12-membered ring, Grubbs II (0.2 eq), microwave 45 min, DCE, 9.8 mM, 120.0 °C, 0.75 h): 53.2% |
|  |  | C[C@@H]1/C=C/C[C@H](NC(=O)OC(C)(C)C)c2cc(ccn2)C(C)(C)CNC1=O | ring closure, isolated yield ([1]; from C=CC[C@H](NC(=O)OC(C)(C)C)c1cc(C(C)(C)CNC(=O)[C@H](C)C=C)ccn1, 12-membered ring, Grubbs II (0.4 eq), microwave 30 min, DCE, 49.8 mM, 120.0 °C, 0.5 h): 43% |
|  |  | C[C@@H]1/C=C/C[C@H](NC(=O)OCc2ccccc2)c2cccc(c2)C[C@H](CC#N)NC1=O | ring closure, isolated yield ([1]; from C=CC[C@H](NC(=O)OCc1ccccc1)c1cccc(C[C@H](CC#N)NC(=O)[C@H](C)C=C)c1, 12-membered ring, Grubbs II (0.2 eq), microwave 30 min, DCE, 8.5 mM, 120.0 °C, 0.5 h): 56.2% |
| 5.85 |  | CC(=O)N1CCCC2NC(=O)[C@H](C)CCC[C@H](n3cnc(-c4c(-n5cc(Cl)nn5)ccc(Cl)c4F)cc3=O)c3cccc(c3)C21 (single isomer, unassigned) [Example 25] |  |
| 6.92 | 5.16 | CC(=O)N1CCCC2NC(=O)[C@H](C)CCC[C@H](n3cnc(-c4c(-n5cc(Cl)nn5)ccc(Cl)c4F)cc3=O)c3cccc(c3)C21 (single isomer, unassigned) [Example 26] |  |
| > 8.30 | 6.39 | C[C@@H]1CCC[C@H](n2cnc(-c3cc(Cl)ccc3-n3cc(C(F)(F)F)nn3)cc2=O)c2cccc(c2)C2C(CCCN2C)NC1=O (single isomer, unassigned) [Example 27] |  |
| 5.95 | 4.95 | C[C@@H]1CCC[C@H](n2cnc(-c3cc(Cl)ccc3-n3cc(C(F)(F)F)nn3)cc2=O)c2cccc(c2)C2C(CCCN2C)NC1=O (single isomer, unassigned) [Example 28] |  |
| 7.28 |  | COC(=O)[C@H]1Cc2cccc(c2)[C@@H](n2cnc(-c3cc(Cl)ccc3-n3cc(Cl)nn3)cc2=O)CCC[C@@H](C)C(=O)N1 [Example 1, methyl (3R,6R,10S)-10-{4-[5-chloro-2-(4-chloro-1H-1,2,3-triazol-1-yl)phenyl]-6-oxo-1,6-dihydropyrimidin-1-yl}-6-methyl-5-oxo-4-azabicyclo[9.3.1]pentadeca-1(15),11,13-triene-3-carboxylate] |  |
| 6.35 |  | C[C@@H]1CCC[C@H](n2cnc(-c3cc(Cl)ccc3-n3cc(C(F)(F)F)nn3)cc2=O)c2cccc(c2)C[C@H](CO)NC1=O [Example 2, (3R,6R,10S)-10-(4-{5-chloro-2-[4-(trifluoromethyl)-1H-1,2,3-triazol-1-yl]phenyl}-6-oxo-1,6-dihydropyrimidin-1-yl)-3-(hydroxymethyl)-6-methyl-4-azabicyclo[9.3.1]pentadeca-1(15),11,13-trien-5-one] |  |
| 6.96 |  | CNC(=O)OC[C@H]1Cc2cccc(c2)[C@@H](n2cnc(-c3cc(Cl)ccc3-n3cc(C(F)(F)F)nn3)cc2=O)CCC[C@@H](C)C(=O)N1 [Example 3, [(3R,6R,10S)-10-(4-{5-chloro-2-[4-(trifluoromethyl)-1H-1,2,3-triazol-1-yl]phenyl}-6-oxo-1,6-dihydropyrimidin-1-yl)-6-methyl-5-oxo-4-azabicyclo[9.3.1]pentadeca-1(15),11,13-trien-3-yl]methyl N-methylcarbamate] |  |
| 6.89 | 5.08 | COC(=O)NCC[C@H]1Cc2cccc(c2)[C@@H](n2cnc(-c3cc(Cl)ccc3-n3cc(C(F)(F)F)nn3)cc2=O)CCC[C@@H](C)C(=O)N1 [Example 4, methyl N-{2-[(3R,6R,10S)-10-(4-{5-chloro-2-[4-(trifluoromethyl)-1H-1,2,3-triazol-1-yl]phenyl}-6-oxo-1,6-dihydropyrimidin-1-yl)-6-methyl-5-oxo-4-azabicyclo[9.3.1]pentadeca-1(15),11,13-trien-3-yl]ethyl}carbamate] |  |
| 6.55 | 5.38 | C[C@@H]1CCC[C@H](n2cnc(-c3cc(Cl)ccc3-n3cc(C(F)(F)F)nn3)cc2=O)c2cccc(c2)C[C@H](CC#N)NC1=O [Example 5, 2-[(3R,6R,10S)-10-(4-{5-chloro-2-[4-(trifluoromethyl)-1H-1,2,3-triazol-1-yl]phenyl}-6-oxo-1,6-dihydropyrimidin-1-yl)-6-methyl-5-oxo-4-azabicyclo[9.3.1]pentadeca-1(15),11,13-trien-3-yl]acetonitrile] |  |
| 6.01 | 5.21 | Cc1c(C(=O)N[C@H]2CCC[C@@H](C)C(=O)N[C@@H](CC#N)Cc3cccc2c3)ncn1-c1cccc(Cl)c1F [Example 6, 1-(3-chloro-2-fluorophenyl)-N-[(3R,6R,10S)-3-(cyanomethyl)-6-methyl-5-oxo-4-azabicyclo[9.3.1]pentadeca-1(15),11,13-trien-10-yl]-5-methyl-1H-imidazole-4-carboxamide] |  |
| ≥ 8.30 | 5.75 | COC(=O)NCC[C@@H]1Cc2cccc(c2)[C@@H](n2cnc(-c3cc(Cl)ccc3-n3cc(C(F)(F)F)nn3)cc2=O)CCC[C@@H](C)C(=O)N1 [Example 8, methyl N-{2-[(3S,6R,10S)-10-(4-{5-chloro-2-[4-(trifluoromethyl)-1H-1,2,3-triazol-1-yl]phenyl}-6-oxo-1,6-dihydropyrimidin-1-yl)-6-methyl-5-oxo-4-azabicyclo[9.3.1]pentadeca-1(15),11,13-trien-3-yl]ethyl}carbamate] |  |
| 8.30 | 5.89 | C[C@@H]1CCC[C@H](n2cnc(-c3cc(Cl)ccc3-n3cc(C(F)(F)F)nn3)cc2=O)c2cccc(c2)C[C@@H](CC#N)NC1=O [Example 9, 2-[(3S,6R,10S)-10-(4-{5-chloro-2-[4-(trifluoromethyl)-1H-1,2,3-triazol-1-yl]phenyl}-6-oxo-1,6-dihydropyrimidin-1-yl)-6-methyl-5-oxo-4-azabicyclo[9.3.1]pentadeca-1(15),11,13-trien-3-yl]acetonitrile] |  |
| 7.90 | 7.09 | O=C1NCCCCC[C@H](n2cnc(-c3cc(Cl)ccc3-n3cc(Cl)nn3)cc2=O)c2cc(ccn2)[C@H]2C[C@@H]12 [Example 31, (2S,4R,12S)-12-{4-[5-Chloro-2-(4-chloro-1H-1,2,3-triazol-1-yl)phenyl]-6-oxo-1,6-dihydropyrimidin-1-yl}-6,14-diazatricyclo[11.3.1.0^2,^4]heptadeca-1(17),13,15-trien-5-one] |  |
| 7.56 | 5.72 | O=C1CCCc2ccnc(c2)[C@@H](n2cnc(-c3cc(Cl)ccc3-n3cc(Cl)nn3)cc2=O)CCCCCN1 [Example 32, (12S)-12-{4-[5-Chloro-2-(4-chloro-1H-1,2,3-triazol-1-yl)phenyl]-6-oxo-1,6-dihydropyrimidin-1-yl}-6,14-diazabicyclo[11.3.1]heptadeca-1(17),13,15-trien-5-one] |  |
| 6.45 | 5.44 | O=C1NCC/C=C/C[C@H](n2cnc(-c3cc(Cl)ccc3-n3cc(Cl)nn3)cc2=O)c2cc(ccn2)[C@H]2C[C@@H]12 [Example 33, (2S,4R,9E,12S)-12-{4-[5-Chloro-2-(4-chloro-1H-1,2,3-triazol-1-yl)phenyl]-6-oxo-1,6-dihydropyrimidin-1-yl}-6,14-diazatricyclo[11.3.1.0^2,^4]heptadeca-1(17),9,13,15-tetraen-5-one] |  |
| 7.02 | 5.51 | O=C1NCCCCC[C@H](n2cnc(-c3cc(Cl)ccc3-n3cc(Cl)nn3)cc2=O)c2cc(ccn2)[C@@H]2C[C@H]12 [Example 34, (2R,4S,12S)-12-{4-[5-Chloro-2-(4-chloro-1H-1,2,3-triazol-1-yl)phenyl]-6-oxo-1,6-dihydropyrimidin-1-yl}-6,14-diazatricyclo[11.3.1.0^2,^4]heptadeca-1(17),13,15-trien-5-one] |  |
